Earlier results on 2 molecules are cited in patent publication US10645923B2, “Insect bait” (priority 2010, dated 2020).

The subject of data set [1] is wasps. The conditions noted are these: fipronil versus sulfluramid; faster acting.
In data set [2] the test system is Vespula spp. The following applies: treated areas.
Data set [3] relates to wasps. The following applies: beef baited with fipronil, North West Patagonia (Argentina).
For data set [4], the system named is V. Germanica. The conditions noted are these: hydramethylnon 2%, after 72 hours.

As to `N#Cc1nn(-c2c(Cl)cc(C(F)(F)F)cc2Cl)c(N)c1[S+]([O-])C(F)(F)F` (stereo not shown) [Fipronil], the “concentration factor lower than sulfluramid at equal toxicity” value in data set [1] is reported as 1000 times. For the same molecule, the “reduction of colony activity” value in data set [2] is reported as 99.7%. In addition, the “reduction of wasp densities” value in data set [3] was 80-100%.

As for `CC1(C)CNC(=NN=C(/C=C/c2ccc(C(F)(F)F)cc2)/C=C/c2ccc(C(F)(F)F)cc2)NC1` [hydramethylnon], in data set [4], the “reduction of wasp populations” value is given as 54%.
